Where two headings read alike, the source gives them in different places.
Tests used:
[1] = system: HT-29, ZR-75 and A-549 cell lines; assay: Average anti-proliferative activity over the three cancer cell lines; format: cell-based, human; details: Homo sapiens, average of HT-29, ZR-75, A-549; for inhibition at 30 µM: read-out: Average Growth Inhibition %
Procedure: Twenty compounds, i.e. 4a-o and 7a-e, were analyzed for cancer cell growth inhibitory activity. These studies were carried out using cells derived from human lung, colon and breast tumors (A549, HT-29 and ZR-75 cells, respectively). This initial assessment of activity tested each compound in quadruplicate at a single concentration of 30 μM, if solubility permitted.
Therefore, they were subjected to quantitative inhibitory concentration 50% (IC50) determination for their cell growth inhibitory activity towards the A549, HT-29 and ZR-75 cancer cell lines.
A549, HT-29, ZR-75 were obtained from the American Type Culture Collection (ATCC). Cells were harvested from 90-95% confluent 10 cm dishes, and diluted in growth media (RPMI-1640 supplemented with 5% fetal bovine serum). An appropriate concentration of cells were prepared to add 1,250 cells in a volume of 25 µL per well in tissue culture treated Griener 384-well microplates, then incubated overnight at 37°C. Compound 7e was diluted to a concentration of 30 µM in DMSO. Concentrated dosing solutions of twice the final concentration were prepared by dilution of the DMSO stocks 1:500 in growth media. Two-fold serial dilutions were then prepared in medium containing 0.2% DMSO to maintain a constant concentration of vehicle throughout the concentration range of the compound. Each of these was added in an equal volume (25 µL) to four wells on each cell assay plate, along with the vehicle control. The highest concentration for serial dilutions of the positive control (sunitinib) was prepared exactly as the experimental compound 7e. Cells were incubated with the compounds for a further 72 h.
The potency of compounds was determined using the non-linear dose response algorithm (four-parameter logistic fit) with GraphPad Prism 5 software.

[2] = system: phosphorylated tyrosine (p-Tyr) in A549 cells; assay: Total cellular tyrosine phosphorylation after serum stimulation (immunofluorescent imaging); format: cell-based, human; details: for Change in p-Tyr levels: A549, serum stimulated; for IC50: A549, 10 min 10% fetal bovine serum, apparent IC50 of an increase for 7e, of a decrease for sunitinib, read-out: IC50 for change in total tyrosine phosphorylation (p-Tyr) levels
Procedure: Furthermore, compound 7e was analyzed for its effect on total cellular levels of phosphorylated tyrosine (p-Tyr) residues in human cancer cells. These studies were carried out using cells derived from lung adenocarcinoma (A549) and immunofluorescent imaging. The ability of the test compound 7e to affect acute serum stimulation of tyrosine phosphorylation was tested over a range of concentrations from less than 100 nM to 50 μM.
Cells were stimulated for 10 min with 10% fetal bovine serum. Phosphotyrosine levels were determined by indirect immunofluorescence followed by automated image acquisition and analysis.

Swiss 3t3 fibroblasts = assay: Selectivity: growth inhibition in non-tumorigenic cell line; format: cell-based, mice; details: Mus musculus, 72 h, maximum 25 μM, read-out: IC50 Fibroblast Swiss 3t3
Procedure: (§1) This assessment of the growth inhibitory activity of the compounds was tested in quadruplicate at a maximum concentration of 25 μM, followed by 10 serially diluted concentrations.
A549, IEC-6, MCF-10A and 3t3 cells were harvested from 90-95% confluent cultures in 10 cm dishes, and diluted in growth media recommended by the suppliers as follows: A549 cells were cultured in RPMI-1640 medium supplemented with 5% fetal bovine serum (FBS). IEC-6 cells were obtained from ATCC and cultured in Dulbecco’s modified Eagle’s medium (DMEM) supplemented with 10% FBS and 0.1 unit/mL recombinant insulin. Swiss 3t3 cells were obtained from ATCC and cultured in DMEM supplemented with 10% FBS. […]
(§2) At the end of the treatment period, assay plates were allowed to cool to RT for 10 min prior to addition of 25 µL per well Promega CellTiterGlo reagent, followed by an additional 10 min incubation at RT. The resulting luminescence was quantitated using a Molecular Devices Spectramax Paradigm.Percent growth inhibition was calculated using equation (1). The potency of compounds was determined using the non-linear dose response algorithm (four-parameter logistic fit) with GraphPad Prism 5 software.

A549 = assay: Growth inhibition in NSCLC comparison line (selectivity and multidrug resistance studies); format: cell-based, human; details: maximum 25 μM, read-out: IC50 NSCLC A-549 (sensitive)
Procedure: as §1
Compound 7e was analyzed for cancer cell growth inhibitory activity in a sensitive NSCLC cell line (A549) and a multidrug resistant lung cancer cell line (NCI-H69AR) which expresses the ABCC1 efflux pump protein. This assessment of activity tested compounds in quadruplicate at a maximum concentration of 25 μM, followed by 10 serially diluted concentrations.
A549, IEC-6, MCF-10A and 3t3 cells were harvested from 90-95% confluent cultures in 10 cm dishes, and diluted in growth media recommended by the suppliers as follows: A549 cells were cultured in RPMI-1640 medium supplemented with 5% fetal bovine serum (FBS). IEC-6 cells were obtained from ATCC and cultured in Dulbecco’s modified Eagle’s medium (DMEM) supplemented with 10% FBS and 0.1 unit/mL recombinant insulin. Swiss 3t3 cells were obtained from ATCC and cultured in DMEM supplemented with 10% FBS. MCF-10Acells were obtained from ATCC and cultured in a mixture DMEM and F12 media supplemented with 5% fetal bovine serum (FBS), 20 ng/mL recombinant epidermal growth factor, 10 µg/mL insulin, 0.5 µg/mL hydrocortisone and 100 ng/mL cholera toxin. An appropriate concentration of cells was prepared to add 1,250 cells in a volume of 25 µL per well in tissue culture treated BD 384-well microplates, then incubated overnight at 37 °C.
Compound 7e and the positive control, sunitinib, were diluted to a concentration of […] in DMSO. Concentrated dosing solutions (double the final concentration) were prepared by dilution of the DMSO stocks 1:500 in growth medium. Two-fold serial dilutions were then prepared in medium containing 0.2% DMSO to maintain a constant concentration of vehicle throughout the concentration range of the compound. Each of these was added in equal volume (25 µL) to four wells on each cell assay plate, along with vehicle control. The highest concentration for serial dilutions of the positive control sunitinib was prepared exactly as the experimental compounds. […]
as §2, with “software. […]” for “software.”
Compound 7e was diluted to a concentration of 25 µM in DMSO. […] The resulting luminescence was quantitated using a Molecular Devices Spectramax Paradigm. […]

[3] = system: IEC-6, MCF-10A, Swiss 3t3 versus A-549; assay: Tumor cell selectivity, non-tumor cell lines versus NSCLC cells; format: cell-based; details: for Mean tumor selectivity: mean IC50 in non-tumor cell lines versus NSCLC cells
Procedure: as §1
As indicated in Fig 7 and Table 4, compound 7e inhibited growth in both normal and tumor cell lines >50%.

Row | SMILES | inhibition at 30 µM [1] | IC50 [1] | Change in p-Tyr levels [2] | IC50 ([2]; Homo sapiens, A549, 10 min) | IC50 (Swiss 3t3 fibroblasts) | IC50 (A549; 72 h) | IC50 (A549; Homo sapiens, A549, 72 h) | Mean tumor selectivity [3] | Growth inhibition in both normal and tumor cell lines ([3]; up to 25 μM) | IC50 [2]
1 | O=C1Nc2ccc(Br)cc2C1=NN=C1C(=O)N(Cc2ccccc2)c2ccccc21 [Compound 7e, 1-Benzyl-3-((5-bromo-2-oxoindolin-3-ylidene)hydrazono)indolin-2-one] | 96.3% | 2370 nM | nearly two-fold | 3800 nM | 2560 nM | 1600 nM | 1560 nM | 1.7 | > 50% | –
2 | CCN(CC)CCNC(=O)c1c(C)[nH]c(/C=C2\C(=O)Nc3ccc(F)cc32)c1C [Sunitinib, sunitinib, reference compound] | 78.7% | 8110 nM | modest dose-dependent decrease | 900 nM | 4070 nM | 3100 nM | 3060 nM | 1.4 | – | 910 nM

— PMC5526551, “New hydrazonoindolin-2-ones: Synthesis, exploration of the possible anti-proliferative mechanism of action and encapsulation into PLGA microspheres” (PLoS ONE, 2017)
